Data from patent US10336792B2, “Antimicrobial peptide dendrimers” (priority 2014, dated 2019).
Values after ≈ are worked out from the molar mass of the structure shown. Positions of bridges follow the written chain, without caps; N, C: chain ends. Non-standard residues stand in square brackets, D forms with d. Residues, ends and D or L forms follow the SMILES beside them. Groups on a side chain read outwards from the residue. Chains are numbered I, II in the order given.

Legend:
[1] = system: male wistar rats; assay: In-vivo toxicity study, single i.v. injection; parameters: species or system rat; conditions: for visible effects and behaviour after injection: 2 mg/kg single i.v. dose into tail vein, two rats; for survival rate: 2 mg/kg single i.v. dose, monitored 2 days
Excerpt: 4-6 weeks old male wistar rats (weight range 200-500 g) were used in toxicity experiments. Rats were obtained from Zentrale Tierställe Bern (Department of Clinical Research from University of Bern) and housed 4 per cage. Each experimental group includes two rats. All procedures, care and handling of the animals were reviewed and approved by the Veterinärdienst of Kanton Bern, Schweiz and execute in collaboration with the group of Prof. Hugues Abriel from Department of Clinical Research from University of Bern.
Rats were anesthetized with 4% isoflurane and 1 L/min oxygen in an induction chamber. When the rats were sleeping they were transferred on a clinical drape and anesthetized with 1-2% isoflurane and 0.8 l/min oxygen via a mask. The tail was warmed up with warm water and disinfected with 70% ethanol. The intravenous (i.v.) injections into the tail vein included a single dose of the AMPD of 2 mg/kg rat in 500 μL PBS. Before injection each rat was weighted individually and the exact dosage was determined. All rats, including control groups with no injection and i.v. injection of 500 μL PBS, were monitored for their survival and behavior for two days.
The compounds MSt-112, a 3rd generation AMPD with KL motive, MSt-181 its D-enantiomer analogue, MSt-242, a the 3rd generation with RL motive, and MSt-114 with Tyr instead of Lys in the 3rd generation were used for in vivo experiments with male wistar rats to assess their toxicity. These compounds were selected due to their high potencies and high MHCs values, which are at least 10 times higher than their activities. Each compound (concentration of 2 mg/kg) was applied to two rats by intravenous injection into the tail vein to observe if the AMPDs are well tolerated or may cause adverse effects. The concentration used was approx. 5-10 times higher than the MICs. […] The behaviour of the rats was normal. […] Therefore it seems that rats tolerate AMPDs very well, without visible site effects or even casualties.

[2] = system: Escherichia coli (strain DH5α); format: cell-based; conditions: DH5α
How it was run: (§1)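 Broth microdilution MIC in LB; overnight cultures diluted to OD600 0.001 and mixed 1:1 with ⅔-serially diluted samples (stock 1 mg mL^−1 in H2O), 37° C for 18-24 h. MTT (0.1%) added; MIC read by eye as lowest concentration inhibiting visible growth (yellow).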

[3] = system: Bacillus subtilis (strain BR151); format: cell-based; conditions: strain BR151
How it was run: as §1

[4] = system: Pseudomonas aeruginosa (strain PA01); assay: microbe, parasite or virus in culture; format: cell-based; conditions: strain
How it was run: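 Broth microdilution MIC against P. aeruginosa PAO1 in LB: peptides serially diluted by ⅔, bacteria added at OD600 0.001 and incubated 18–24 h at 37 °C. MTT added; MIC is the lowest concentration preventing visible growth.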

[5] = system: P. aeruginosa PEJ2.6, PEJ9.1, ZEM1.A, ZEM9.A (clinical isolates); format: cell-based, Pseudomonas aeruginosa; conditions: PEJ2.6, PEJ9.1, ZEM1.A, ZEM9.A (clinical isolates)
Protocol: (§2) Antimicrobial activity was assayed against P. aeruginosa PA01 (WT), P. aeruginosa PT1482 (A-), PT1485 (A-B-), PT1149 (A-B-C-algC), PT331 (Z61) (LPS mutants), P. aeruginosa PEJ2.6, PEJ9.1, ZEM1.A, ZEM9.A (clinical isolates from Université de Genève/Centre Médical Universitaire), Burkholderia cenocepacia (B. ceno), Staphylococcus aureus (S. aureus, MRSA strain) and Acinetobacter baumannii (A. baum) (clinical isolates from Université de Genève/Centre Médical Universitaire). To determine the minimal inhibitory concentration (MIC), microdilution broth method was used. A colony of bacteria was grown in MH-medium overnight at 37° C. The samples were prepared as stock solutions of 8 mg mL^−1 in H2O, diluted to the beginning concentration of 32, 64, 128 or 256 μg/mL in 300 μL MH-medium, added to the first well of 96-well microtiterplate (TPP, untreated) and diluted serially by ½. The concentration of the bacteria was quantified by measuring absorbance at 600 nm and diluted to OD600=0.022 in MH-medium. The sample solutions (150 μL) were mixed with 4 μL diluted bacterial suspension with a final inoculation of about of 5×10^5 CFU. The plates were incubated at 37° C. until satisfactory growth (˜18 h). For each test, two columns of the plate were kept for sterility control (SC, broth only) and growth control (GC, broth with bacterial inoculums, no antibiotics). The minimal inhibitory concentration (MIC) was defined as the lowest concentration of the antimicrobial substance (peptide dendrimer) that inhibited visible growth of the tested bacteria with the unaided eye. For microbiological study Polymyxin was used as references.
(§3) Ten of the most promising compounds (FIG. 5) were tested for their efficiency against four clinical isolates of P. aeruginosa (ZEM9.A, ZEM1.A, PEJ2.6, PEJ9.1), one S. aureus (COL, MRSA reference strain) and one A. baumannii strain. For the experiments in Genève the peptide dendrimers and reference compounds (polymyxin) were dissolved in PBS and the assay was carried out in Müller-Hinton (MH) broth with a two-fold dilution.

[6] = system: Staphylococcus aureus (COL, MRSA reference strain); format: cell-based; conditions: COL, reference strain
Protocol: as §2, §3

[7] = system: Acinetobacter baumannii; format: cell-based
Protocol: as §2, §3

[8] = system: P. aeruginosa PA01 (WT); format: cell-based, Pseudomonas aeruginosa; conditions: WT
Protocol: as §2

| SMILES | visible effects and behaviour after injection [1] | survival rate [1] [%] | MIC E. coli DH5α [2] [µg/mL] | MIC B. subtilis BR151 [3] [µg/mL] | MIC P. aeruginosa PAO1 [4] [µg/mL] | MIC P. aeruginosa ZEM9.A [5] [µg/mL] | MIC S. aureus (COL, MRSA reference strain) [6] | MIC P. aeruginosa MDR clinical isolate PEJ2.6 [5] [µg/mL] | MIC P. aeruginosa MDR clinical isolate PEJ9.1 [5] [µg/mL] | MIC P. aeruginosa MDR clinical isolate ZEM1A [5] [µg/mL] | MIC P. aeruginosa MDR clinical isolate ZEM9A [5] [µg/mL] | MIC S. aureus COL [6] [µg/mL] | MIC A. baumannii ATCC19606 [7] [µg/mL] | MIC PAO1 [8] [µg/mL] |
| --- | --- | --- | --- | --- | --- | --- | --- | --- | --- | --- | --- | --- | --- | --- |
| CC(C)C[C@@H](NC(=O)[C@@H](CCCCN)NC(=O)[C@@H](CCCCNC(=O)[C@@H](CC(C)C)NC(=O)[C@@H](CCCCN)NC(=O)[C@@H](CCCCNC(=O)[C@@H](CC(C)C)NC(=O)[C@@H](CCCCN)NC(=O)[C@@H](CCCCNC(=O)[C@@H](CC(C)C)NC(=O)[C@H](N)CCCCN)NC(=O)[C@@H](CC(C)C)NC(=O)[C@H](N)CCCCN)NC(=O)[C@@H](CC(C)C)NC(=O)[C@@H](CCCCN)NC(=O)[C@@H](CCCCNC(=O)[C@@H](CC(C)C)NC(=O)[C@H](N)CCCCN)NC(=O)[C@@H](CC(C)C)NC(=O)[C@H](N)CCCCN)NC(=O)[C@@H](CC(C)C)NC(=O)[C@@H](CCCCN)NC(=O)[C@@H](CCCCNC(=O)[C@@H](CC(C)C)NC(=O)[C@@H](CCCCN)NC(=O)[C@@H](CCCCNC(=O)[C@@H](CC(C)C)NC(=O)[C@H](N)CCCCN)NC(=O)[C@@H](CC(C)C)NC(=O)[C@H](N)CCCCN)NC(=O)[C@@H](CC(C)C)NC(=O)[C@@H](CCCCN)NC(=O)[C@@H](CCCCNC(=O)[C@@H](CC(C)C)NC(=O)[C@H](N)CCCCN)NC(=O)[C@@H](CC(C)C)NC(=O)[C@H](N)CCCCN)C(N)=O [MSt-181, (kl)8(kkl)4(kkl)2(kkl)] (I: H-[dK][dL][dK]([dL-dK])[dK][dL][dK][dK][dL][dK][dK][dL]-NH2 / II: H-[dK][dL][dK]([dL-dK])[dK][dL][dK][dK][dL] / III: H-[dK][dL][dK]([dL-dK])[dK][dL] / IV: H-[dK][dL][dK]([dL-dK])[dK][dL]; amide I:6-IV:C, I:9-II:C, II:6-III:C) | slightly bluish extremities which subsided after approx. 5 min | 100 | 1 (≈ 0.221 µM) | 2 (≈ 0.441 µM) | 4 (≈ 0.882 µM) | – | – | – | – | – | – | – | – | – |
| CC(C)C[C@H](NC(=O)[C@H](CCCNC(=N)N)NC(=O)[C@H](CCCCNC(=O)[C@H](CC(C)C)NC(=O)[C@H](CCCNC(=N)N)NC(=O)[C@H](CCCCNC(=O)[C@H](CC(C)C)NC(=O)[C@H](CCCNC(=N)N)NC(=O)[C@H](CCCCNC(=O)[C@H](CC(C)C)NC(=O)[C@@H](N)CCCNC(=N)N)NC(=O)[C@H](CC(C)C)NC(=O)[C@@H](N)CCCNC(=N)N)NC(=O)[C@H](CC(C)C)NC(=O)[C@H](CCCNC(=N)N)NC(=O)[C@H](CCCCNC(=O)[C@H](CC(C)C)NC(=O)[C@@H](N)CCCNC(=N)N)NC(=O)[C@H](CC(C)C)NC(=O)[C@@H](N)CCCNC(=N)N)NC(=O)[C@H](CC(C)C)NC(=O)[C@H](CCCNC(=N)N)NC(=O)[C@H](CCCCNC(=O)[C@H](CC(C)C)NC(=O)[C@H](CCCNC(=N)N)NC(=O)[C@H](CCCCNC(=O)[C@H](CC(C)C)NC(=O)[C@@H](N)CCCNC(=N)N)NC(=O)[C@H](CC(C)C)NC(=O)[C@@H](N)CCCNC(=N)N)NC(=O)[C@H](CC(C)C)NC(=O)[C@H](CCCNC(=N)N)NC(=O)[C@H](CCCCNC(=O)[C@H](CC(C)C)NC(=O)[C@@H](N)CCCNC(=N)N)NC(=O)[C@H](CC(C)C)NC(=O)[C@@H](N)CCCNC(=N)N)C(N)=O [MSt-242, (RL)8(KRL)4(KRL)2(KRL)] (I: H-RLK([Leu-Arg])RLKRLKRL-NH2 / II: H-RLK([Leu-Arg])RLKRL / III: H-RLK([Leu-Arg])RL / IV: H-RLK([Leu-Arg])RL; amide I:6-IV:C, I:9-II:C, II:6-III:C) | No visible effect | 100 | 3 (≈ 0.606 µM) | 11 (≈ 2.22 µM) | 8 (≈ 1.61 µM) | > 20 | below 20 μg/mL | – | – | – | – | – | – | – |
| CC(C)C[C@H](NC(=O)[C@H](CCCCN)NC(=O)[C@H](CCCCNC(=O)[C@H](CC(C)C)NC(=O)[C@H](CCCCN)NC(=O)[C@H](CCCCNC(=O)[C@H](CC(C)C)NC(=O)[C@@H](N)CCCCN)NC(=O)[C@H](CC(C)C)NC(=O)[C@@H](N)CCCCN)NC(=O)[C@H](CC(C)C)NC(=O)[C@H](CCCCN)NC(=O)[C@H](CCCCNC(=O)[C@H](CC(C)C)NC(=O)[C@@H](N)CCCCN)NC(=O)[C@H](CC(C)C)NC(=O)[C@@H](N)CCCCN)C(N)=O [Compound G2KL] (I: H-KLK([Leu-Lys])KLKKL-NH2 / II: H-KLK([Leu-Lys])KL; amide I:6-II:C; N-terminus assumed) | – | – | – | – | – | – | – | >64 | >64 | >64 | >64 | >64 | >64 | >64 |
| CC(C)C[C@H](NC(=O)[C@H](CCCCN)NC(=O)[C@H](CCCCNC(=O)[C@H](CC(C)C)NC(=O)[C@H](CCCCN)NC(=O)[C@H](CCCCNC(=O)[C@H](CC(C)C)NC(=O)[C@H](CCCCN)NC(=O)[C@H](CCCCNC(=O)[C@H](Cc1ccc(O)cc1)NC(=O)[C@@H](N)CCCCN)NC(=O)[C@H](Cc1ccc(O)cc1)NC(=O)[C@@H](N)CCCCN)NC(=O)[C@H](CC(C)C)NC(=O)[C@H](CCCCN)NC(=O)[C@H](CCCCNC(=O)[C@H](Cc1ccc(O)cc1)NC(=O)[C@@H](N)CCCCN)NC(=O)[C@H](Cc1ccc(O)cc1)NC(=O)[C@@H](N)CCCCN)NC(=O)[C@H](CC(C)C)NC(=O)[C@H](CCCCN)NC(=O)[C@H](CCCCNC(=O)[C@H](CC(C)C)NC(=O)[C@H](CCCCN)NC(=O)[C@H](CCCCNC(=O)[C@H](Cc1ccc(O)cc1)NC(=O)[C@@H](N)CCCCN)NC(=O)[C@H](Cc1ccc(O)cc1)NC(=O)[C@@H](N)CCCCN)NC(=O)[C@H](CC(C)C)NC(=O)[C@H](CCCCN)NC(=O)[C@H](CCCCNC(=O)[C@H](Cc1ccc(O)cc1)NC(=O)[C@@H](N)CCCCN)NC(=O)[C@H](Cc1ccc(O)cc1)NC(=O)[C@@H](N)CCCCN)C(N)=O [MSt-114, (KY)8(KKL)4(KKL)2(KKL)] (I: H-KYK([Tyr-Lys])KLKKLKKL-NH2 / II: H-KYK([Tyr-Lys])KLKKL / III: H-KYK([Tyr-Lys])KL / IV: H-KYK([Tyr-Lys])KL; amide I:6-IV:C, I:9-II:C, II:6-III:C) | slightly bluish extremities which subsided after approx. 5 min | 100 | – | 13 (≈ 2.63 µM) | 2 (≈ 0.405 µM) | – | – | – | – | – | – | – | – | – |
